Measured values published in BindingDB's records for doi:10.1021/acsmedchemlett.1c00437 (University of Pennsylvania, 2021).

Columns and labels:
[1] = Inhibition of gp120 in HIV-1 pseudotyped with A-MLV envelop glycoprotein infected in dog Cf2Th-CD4/CCR5 cells assessed as inhibition of viral entry incubated for 30 mins prior to infection and further incubated for 48 to 72 hrs in presence of firefly D-luciferin free acid and ATP by single-round infection luciferase assay
[2] = Inhibition of gp120 in HIV-1 AD8 infected in dog Cf2Th-CD4/CCR5 cells assessed as inhibition of viral entry incubated for 30 mins prior to infection and further incubated for 48 to 72 hrs in presence of firefly D-luciferin free acid and ATP by single-round infection luciferase assay
[3] = Inhibition of gp120 in HIV-1 191084 infected in dog Cf2Th-CD4/CCR5 cells assessed as inhibition of viral entry incubated for 30 mins prior to infection and further incubated for 48 to 72 hrs in presence of firefly D-luciferin free acid and ATP by single-round infection luciferase assay
[4] = Inhibition of gp120 in HIV-1 A4 infected in dog Cf2Th-CD4/CCR5 cells assessed as inhibition of viral entry incubated for 30 mins prior to infection and further incubated for 48 to 72 hrs in presence of firefly D-luciferin free acid and ATP by single-round infection luciferase assay

Row | SMILES | IC50 [1] [µM] | IC50 [2] [µM] | IC50 [3] [µM] | IC50 [4] [µM]
1 | C=CCC[C@@H]1c2cc(CNC)ccc2[C@H](NC(=O)C(=O)Nc2ccc(Cl)c(F)c2)[C@H]1CNC(=N)N | > 300 | 7.4 |  | 
2 | CNCc1ccc2c(c1)[C@@H](CCCO)[C@H](CNC(=N)N)[C@H]2NC(=O)C(=O)Nc1ccc(Cl)c(F)c1 | > 300 | 7.7 |  | 
3 | CNCc1ccc2c(c1)[C@@H](CCC(O)CO)[C@H](CNC(=N)N)[C@H]2NC(=O)C(=O)Nc1ccc(Cl)c(F)c1 (some centres undefined) | > 300 | 3.32 | 20.6 | 98.9
4 | CNCc1ccc2c(c1)[C@@H](CCC(=O)CO)[C@H](CNC(=N)N)[C@H]2NC(=O)C(=O)Nc1ccc(Cl)c(F)c1 | > 100 | 3.35 |  | 
5 | [H]/N=C(/N)NC[C@H]1[C@H](CC[C@H](O)CO)c2cc(CNC)ccc2[C@@H]1NC(=O)C(=O)Nc1ccc(Cl)c(F)c1 | > 300 | 0.91 |  | 
6 | [H]/N=C(/N)NC[C@H]1[C@H](CC[C@@H](O)CO)c2cc(CNC)ccc2[C@@H]1NC(=O)C(=O)Nc1ccc(Cl)c(F)c1 | > 300 | 1.6 |  | 
7 | CNCc1ccc2c(c1)[C@H](NC(=O)C(=O)Nc1ccc(Cl)c(F)c1)[C@@H](CNC(=N)N)[C@@H]2CCCO | > 300 | 2.05 |  | 
8 | CNCc1ccc2c(c1)[C@H](NC(=O)C(=O)Nc1ccc(Cl)c(F)c1)[C@@H](CNC(=N)N)[C@@H]2CCC(O)CO (some centres undefined) | > 300 | 0.96 |  | 
9 | CNCc1ccc2c(c1)[C@H](NC(=O)C(=O)Nc1ccc(Cl)c(F)c1)[C@@H](CNC(=N)N)[C@@H]2CC[C@H](O)CO | > 300 | 2.22 |  | 
10 | CCCC[C@@H]1c2cc(CNC)ccc2[C@H](NC(=O)C(=O)Nc2ccc(Cl)c(F)c2)[C@H]1CNC(=N)N | > 100 |  |  | 
11 | C=CCC[C@@H]1c2ccc(CNC)cc2[C@H](NC(=O)C(=O)Nc2ccc(Cl)c(F)c2)[C@H]1CNC(=N)N | > 300 |  |  | 
12 | [H]/N=C(/N)NC[C@H]1Cc2cc(CNC)ccc2[C@@H]1NC(=O)C(=O)Nc1ccc(Cl)c(F)c1 |  |  | 95.9 | 200
